Assay results as given in publication PMC7200681, “The calcitonin-like system is an ancient regulatory system of biomineralization” (Scientific Reports, 2020).
Bridge positions count the residues as written; N and C are the ends.

Assays:
mussel CALCRIIa = test: Calcium mobilization assay (apoaequorin bioluminescence), dose-response, HEK 293 cells expressing mussel CALCRIIa; format: cell-based, Mytilus galloprovincialis; conditions: calcium mobilization, HEK 293/apoaequorin, 1 μM to 0.01 nM
Description: The complete sequence of the Mediterranean mussel CALCRIa was amplified using specific primers (Table 1) from cDNA of a tissue mixture (mantle, adductor muscle, gills, gonads) using a proofreading DNA polymerase (iProof BIORAD, Portugal) and cloned into the pGEMT-easy vector (PROMEGA, Spain). The Mediterranean mussel CALCRIIa transcript that was found in the mantle transcriptome was incomplete and lacked the N-terminus (by comparisons with the hard-shelled mussel homologue) and so the remaining sequence (from 1–393 bp) was deduced from the hard-shelled mussel homologue receptor and the receptor was synthesised and supplied by GENESCRIPT (USA). The complete transcripts for mussel CALCRIc, CALCRIIb and CALCRIIc were only found in the hard-shelled mussel mantle transcriptome and homologues were only found in the Mediterranean mussel genome as they were absent from the species mantle transcriptome and so they were also synthesised and supplied by GENESCRIPT (USA) using the hard-shelled mussel receptor sequences as template. The mussel CALCRIb transcript was incomplete and lacked both N and C-terminal regions and it was not possible to obtain the complete transcript either by searching both mussels mantle transcriptomes or the Mediterranean mussel genome and so it was not produced. All synthetized receptors were provided in the pUC57 cloning vector by the company and receptor codon usage was optimized to favour a high level of expression in mammalian cells.
Mammalian cell cultures and transfections followed the methodology described by[89],[90]. Mammalian HEK293 cells (ECACC, UK) were used and they were maintained in complete Dulbecco’s modified Eagle’s medium (DMEM, 4.5 g/l glucose, 110 mg/l sodium pyruvate and L-glutamine, SIGMA-ALDRICH, Spain) supplemented with 10% sterile foetal bovine serum (FBS), 0.1% penicillin: streptomycin antibiotic mix (10,000 U:10 mg/ml, Sigma) and 250 μg /ml sterile filtered 1:100 amphotericin B solution (SIGMA-ALDRICH) in a humid 5% CO2 incubator (HERAEUS, Portugal) at 37 °C. On the day prior to transfection, 2–3 × 10^5 HEK293 cells were seeded on 6 well plates (SARSTEDT, Portugal) and transfected with Fugene HD transfection reagent (2 DNA: 4 Fugene ratio, PROMEGA) following the manufacturer’s protocol. Seventy-two hours after transfection, 800 μg/ml of the antibiotic Geneticin (SIGMA-ALDRICH) was added to the medium to select and isolate stable receptor cell lines. Cell recovery was monitored daily and the medium was changed every two days until no cell death was observed. […]
HEK293 cells stably expressing five mussel receptors (CALCRIa, CALCRIc, CALCRIIa, CALCRIIb and CALCRIIc) were stimulated with the two mussel peptides and the vertebrate (human and salmon) calcitonins. Receptor activation was assessed in vitro by measuring two intracellular signalling pathways: a) production of cAMP and b) mobilization of calcium (Ca^2+). The cellular response was initially assessed using 10 μM of each peptide. […]
Stable cell lines expressing the mussel receptors were transiently co-transfected with the mitochondrial targeted apo-aequorin protein cloned in pcDNA3.1. Two days after transfection cells were washed, counted and resuspended in 1 ml of DMEM /F12 Ham (without phenol red)/0.1% BSA supplemented with 2 µM coelenterazine (SIGMA-ALDRICH). […] The injector system of the Biotek Synergy 4 microplate reader (USA) was used to inject 50 µl of the cell suspensions into wells containing 50 μl of the diluted peptide in DMEM / F12 Ham / 0.1% BSA. […]

[1] = tested on: alpha-carbonic anhydrase (CA) esterase activity in mussel mantle edge; test: Esterase (carbonic anhydrase) activity in mantle after ex-vivo incubation; design: species or system Mytilus galloprovincialis; conditions: after exposure to CALCIIa 10 μM or ouabain 2 mM; 4-Nitrophenyl acetate substrate; n = 6
Method: (A) Esterase activity and (B) Acid phosphatase activity. Enzyme activity was quantified in protein extracts from the mantle of control or challenged samples that were incubated with the mussel CALCIIa peptide. Values represent the mean ± SEM (CA, n = 6 and TRAP, n = 10) performed in duplicate. Prism GraphPad v5 software was used to assess the significance of the differences between the groups using One-way Anova and Tukey’s multiple comparison test. […] C - control; P - peptide (10 μM); O - ouabain (2 mM), OP - ouabain (2 mM) and peptide (10 μM); PreOP - pre stimulation for 1 hour with the peptide and 4 hours incubation with OP.
The posterior mantle edge region of the Mediterranean mussel was collected and washed in culture medium. The composition of the culture medium was as described in[91] […] The culture medium was supplemented with heat inactivated 2% FBS (SIGMA-ALDRICH), 0.1% penicillin: streptomycin antibiotic mix (10.000 U:10 mg/ml, SIGMA-ALDRICH) and 250 μg/ml sterile filtered 1:100 amphotericin B solution (Sigma-Aldrich). The posterior mantle edge from mussels was collected into culture medium and cut into fragments of approximately 1–2 mm in length. […]
Esterase activity in the mussel posterior mantle edge (n = 6/experimental group) was quantified using a colorimetric assay that measures the conversion of the substrate 4-Nitrophenyl acetate to p-nitrophenolate[92]. […]

H-CTWGGGMSDEMCSTVDIDEIQRSFQVIHDRNSP-NH2 (disulfide 1-12 (inferred)) [CALCIIa, Mediterranean mussel calcitonin-like mature peptide, 33 aa, synthesized with disulphide bond and C-terminal amidation]
Activation of mussel CALCRIIa in dose-response analysis (in words) (mussel CALCRIIa): not activated
CA esterase activity in mantle edge (in words) [1]: No change
